pIC50, pKd: −log10 of the molar value. In brackets after ≈: the same amount, converted by molar mass. Where two headings read alike, the source gives them in different places.
Experiments:
[1] = target: 18S ribosomal subunit RNA target; test: Mass spectrometry based binding assay (FTICR), 18S
Description: (§1) In a typical experiment, 10 μL of an aqueous solution containing 100 mM ammonium acetate buffer, 2.5 or 5 μM of each RNA, and 33% isopropyl alcohol (to aid ion desolvation) was prepared with different concentrations of each ligand or ligand mixture Samples were introduced into the electrospray ionization source (negative ionization mode) at 1 μL/min and ions were stored for 1 sec in an RF-only hexapole following desolvation. The abundances were integrated from the respective ions for free RNA and the ligand-RNA complex. The primary (1:1 RNA:ligand) and secondary (1:2 complex, if observed). […] The peak ratios were measured at each concentration, then a plot of complex/free RNA versus concentration of ligand added was fitted to a second (or higher) order binding polynomial to determine the KD.

[2] = tested on: E. Coli; test: MIC, E. Coli; assay type: cell-based
Description: (§2) The MIC assays are carried out in 150 μL volume in duplicate in 96-well clear flat-bottom plates. The bacterial suspension from an overnight culture growth in appropriate medium is added to a solution of test compound in 4% DMSO in water. Final bacterial inoculum is approximately 10^5-10^6 CFU/well. […] Both ampicillin and tetracycline are used as antibiotic-positive controls in each screening assay for S. pyogenes, E. coli imp-, E. coli, S. aureus, E. faecalis, K. pneumoniae and P. vulgaris. Ciprofloxacin is used as an antibiotic positive control in each screening assay for P. aeruginosa.

[3] = tested on: E. coli S30 bacterial extract (pBestLuc firefly luciferase reporter); test: Coupled bacterial transcription/translation assay; assay type: biochemical; settings: read-out: Trans/Trans IC50
Description: The DNA template, pBestLuc™ (Promega), is a plasmid containing a reporter gene for firefly luciferase fused to a strong tac promoter and ribosome binding site. Messenger RNA from 1 μg pBestLuc is transcribed and translated in E. coli S30 bacterial extract in the presence or absence of test compound. Compounds are tested in a black 96 well microtiter plate with an assay volume of 35 μL. […] The transcription/translation reaction is incubated for 35 minutes at 37° C. followed by detection of functional luciferase with the addition of 30 μL LucLite™ (Packard). Light output is quantitated on a Packard TopCount.

[4] = target: 16S ribosomal subunit RNA target; test: Mass spectrometry based binding assay (FTICR), 16S
Description: as §1, with “[…],” for “2.5 or 5 μM of each RNA,”

[5] = tested on: S. Aureus; test: MIC, S. Aureus; assay type: cell-based
Description: as §2

[6] = FTICR mass spectrometry, Example 105
[7] = FTICR mass spectrometry, run at 100 nM RNA, Example 105

Compound | pKd [1, 6] | MIC E. Coli. ([2]; Example 105) | pIC50 ([3]; Example 105) | pKd [4, 7] | MIC S. Aureus ([5]; Example 105) | further results
NCC1OC(OC2C(CO)OC(OC3C(O)C(N)CC(N)C3OC3OC(CO)C(O)C(O)C3N)C2OCCNCCc2ccc3ccccc3c2)C(N)C(O)C1O (stereo not drawn) [Compound 9ak] | 5.46 | 10 to 20 µM | 6.52 | 6.15 | 1-3. uM | –
NCC1OC(OC2C(CO)OC(OC3C(O)C(N)CC(N)C3OC3OC(CO)C(O)C(O)C3N)C2OCCNCc2nc3ccccc3[nH]2)C(N)C(O)C1O (stereo not drawn) [Compound 9e] | 4.96 | >100 µM | 6.70 | 5.41 | >100 µM | –
NCC1OC(OC2C(CO)OC(OC3C(O)C(N)CC(N)C3OC3OC(CO)C(O)C(O)C3N)C2OCCNC2CCCNC2)C(N)C(O)C1O (stereo not drawn) [Compound 9j] | 5.30 | 1.5-3^ uM | 7.00 | 7.00 | 3 to 6 µM | –
NCC1OC(OC2C(CO)OC(OC3C(O)C(N)CC(N)C3OC3OC(CO)C(O)C(O)C3N)C2OCCNCC2CCCNC2)C(N)C(O)C1O (stereo not drawn) [Compound 9k] | 5.59 | 1.5-3^ uM | 7.40 | 6.52 | 3 to 6 µM | –
NCC1OC(OC2C(CO)OC(OC3C(O)C(N)CC(N)C3OC3OC(CO)C(O)C(O)C3N)C2OCCNc2cnc3ccccc3c2)C(N)C(O)C1O (stereo not drawn) [Compound 9m] | 6.05 | 12 to 25 µM | 7.00 | 7.00 | 1 to 2 µM | –
NCC1OC(OC2C(CO)OC(OC3C(O)C(N)CC(N)C3OC3OC(CO)C(O)C(O)C3N)C2OCCNC2CCCCC2)C(N)C(O)C1O (stereo not drawn) [Compound 9n] | 6.40 | 3 to 6 µM | 6.70 | 7.00 | 3 to 5 µM | –
NCC1OC(OC2C(CO)OC(OC3C(O)C(N)CC(N)C3OC3OC(CO)C(O)C(O)C3N)C2OCCNCCc2cccnc2)C(N)C(O)C1O (stereo not drawn) [Compound 9o] | 6.00 | 6 to 12 µM | 6.70 | 6.70 | 0.6-1^ uM | –
NCC1OC(OC2C(CO)OC(OC3C(O)C(N)CC(N)C3OC3OC(CO)C(O)C(O)C3N)C2OCCNCc2ccccc2)C(N)C(O)C1O (stereo not drawn) [Compound 9q] | 6.52 | 3 to 6 µM | 6.10 | 7.00 | 3 to 5 µM | –
NCC1OC(OC2C(CO)OC(OC3C(O)C(N)CC(N)C3OC3OC(CO)C(O)C(O)C3N)C2OCCNCc2ccc(N)nc2)C(N)C(O)C1O (stereo not drawn) [Compound 9s] | 6.30 | 3 to 6 µM | 6.70 | 7.00 | 0.3 to 0.6 µM | –
NCC1OC(OC2C(CO)OC(OC3C(O)C(N)CC(N)C3OC3OC(CO)C(O)C(O)C3N)C2OCCNCc2ccnc(N)c2)C(N)C(O)C1O (stereo not drawn) [Compound 9t] | 6.52 | 6 to 12 µM | 6.15 | 7.70 | 0.6-1^ uM | –
NCC1OC(OC2C(CO)OC(OC3C(O)C(N)CC(N)C3OC3OC(CO)C(O)C(O)C3N)C2OCCNc2ccccn2)C(N)C(O)C1O (stereo not drawn) [Compound 9u] | 4.66 | 12 to 25 µM | 6.40 | 5.30 | 1 to 2 µM | –
NCC1OC(OC2C(CO)OC(OC3C(O)C(N)CC(N)C3OC3OC(CO)C(O)C(O)C3N)C2OCCNC23CC4CC(CC(O)(C4)C2)C3)C(N)C(O)C1O (stereo not drawn) [Compound 9w] | – | – | – | – | – | pKd ([1]; Example 106): 5.77; MIC E. Coli. ([2]; Example 106): 20 to 40 µM; pIC50 ([3]; Example 106): 6.40; pKd ([4]; Example 106): 5.49; MIC S. Aureus ([5]; Example 106): 1 to 3 µM
NCC1OC(OC2C(CO)OC(OC3C(O)C(N)CC(N)C3OC3OC(CO)C(O)C(O)C3N)C2OCCNCCCc2ccccc2)C(N)C(O)C1O (stereo not drawn) [Compound 9x] | 5.20 | 3 to 5 µM | 7.00 | 6.00 | 0.6 to 1.2 µM | –
NCC1OC(OC2C(CO)OC(OC3C(O)C(N)CC(N)C3OC3OC(CO)C(O)C(O)C3N)C2OCCNCCCCc2ccccc2)C(N)C(O)C1O (stereo not drawn) [Compound 9z] | 5.19 | 3 to 5 µM | 7.00 | 6.15 | 0.6 to 1.2 µM | –
NCC1OC(OC2C(CO)OC(OC3C(O)C(N)CC(N)C3OC3OC(CO)C(O)C(O)C3N)C2OCCN(CCc2ccccc2)C(=O)c2ccccc2)C(N)C(O)C1O (stereo not drawn) [Compound 10] | – | – | – | – | – | pKd ([1]; Example 106): 5.60; MIC E. Coli. ([2]; Example 106): 10 to 20 µM; pIC50 ([3]; Example 106): 6.40; pKd ([4]; Example 106): 5.41; MIC S. Aureus ([5]; Example 106): 3 to 5 µM
CC(=O)N(CCOC1C(OC2C(O)C(N)CC(N)C2OC2OC(CO)C(O)C(O)C2N)OC(CO)C1OC1OC(CN)C(O)C(O)C1N)CCc1ccccc1 (stereo not drawn) [Compound 11] | – | – | – | – | – | pKd ([1]; Example 106): 5.21; MIC E. Coli. ([2]; Example 106): 10 to 20 µM; pIC50 ([3]; Example 106): 6.40; pKd ([4]; Example 106): 5.82; MIC S. Aureus ([5]; Example 106): 1 to 3 µM
NC[C@@H]1O[C@H](O[C@H]2[C@@H](OCCO)[C@H](O[C@@H]3[C@@H](O)[C@H](N)C[C@H](N)[C@H]3O[C@H]3O[C@H](CO)[C@@H](O)[C@H](O)[C@H]3N)O[C@@H]2CO)[C@H](N)[C@@H](O)[C@@H]1O [Compound 12a] | 5.14 | 12 to 25 µM | 7.00 | 6.05 | 6 to 12 µM | –
NC[C@@H]1O[C@H](O[C@H]2[C@@H](OCCCCCc3ccccc3)[C@H](O[C@@H]3[C@@H](O)[C@H](N)C[C@H](N)[C@H]3O[C@H]3O[C@H](CO)[C@@H](O)[C@H](O)[C@H]3N)O[C@@H]2CO)[C@H](N)[C@@H](O)[C@@H]1O [Compound 14c] | 4.23 | – | 6.70 | 4.40 | – | MIC ([2]; Escherichia coli, Example 105): 10 to 20 µM (≈ 7.62 to 15.2 µg/mL); MIC E. Coli. ([2]; Example 107): 10 to 20 µM; MIC S. Aureus ([5]; Example 107): 3 to 5 µM; MIC ([5]; Staphylococcus aureus, Example 105): 3 to 5 µM (≈ 2.29 to 3.81 µg/mL)
NCCCNCC1OC(OC2C(N)CC(N)C(O)C2OC2OC(CO)C(OC3OC(CN)C(O)C(O)C3N)C2O)C(N)C(O)C1O (stereo not drawn) [Compound 15b] | – | – | – | – | – | pKd ([1]; Example 108): 5.85; MIC E. Coli. ([2]; Example 108): 2.5-5^ uM; pIC50 ([3]; Example 108): 6.70; pKd ([4]; Example 108): 5.80; MIC S. Aureus ([5]; Example 108): 1.3 to 2.5 µM
NCC1OC(OC2C(CO)OC(OC3C(O)C(N)CC(N)C3OC3OC(CN4CCOCC4)C(O)C(O)C3N)C2O)C(N)C(O)C1O (stereo not drawn) [Compound 15c] | – | – | – | – | – | pKd ([1]; Example 108): 5.52; MIC E. Coli. ([2]; Example 108): 20 to 40 µM; pIC50 ([3]; Example 108): 6.52; pKd ([4]; Example 108): 5.44; MIC S. Aureus ([5]; Example 108): 10 to 20 µM
CC(C)(C)OC(=O)NNCC1OC(OC2C(N)CC(N)C(O)C2OC2OC(CO)C(OC3OC(CN)C(O)C(O)C3N)C2O)C(N)C(O)C1O (stereo not drawn) [Compound 15d] | – | – | – | – | – | pKd ([1]; Example 108): 5.85; MIC E. Coli. ([2]; Example 108): 6 to 12 µM; pIC50 ([3]; Example 108): 6.52; pKd ([4]; Example 108): 8.00; MIC S. Aureus ([5]; Example 108): 12 to 25 µM
CNCC1OC(OC2C(N)CC(N)C(O)C2OC2OC(CO)C(OC3OC(CN)C(O)C(O)C3N)C2O)C(N)C(O)C1O (stereo not drawn) [Compound 15e] | – | – | – | – | – | pKd ([1]; Example 108): 5.92; MIC E. Coli. ([2]; Example 108): 2 to 3 µM; pIC50 ([3]; Example 108): 6.70; pKd ([4]; Example 108): 6.40; MIC S. Aureus ([5]; Example 108): 2 to 3 µM
CC(C)NCC1OC(OC2C(N)CC(N)C(O)C2OC2OC(CO)C(OC3OC(CN)C(O)C(O)C3N)C2O)C(N)C(O)C1O (stereo not drawn) [Compound 15h] | – | – | – | – | – | pKd ([1]; Example 108): 5.92; MIC E. Coli. ([2]; Example 108): 2.5-5^ uM; pIC50 ([3]; Example 108): 6.70; pKd ([4]; Example 108): 5.92; MIC S. Aureus ([5]; Example 108): 1.3 to 2.5 µM
NCC1OC(OC2C(CO)OC(OC3C(O)C(N)CC(N)C3OC3OC(CNN)C(O)C(O)C3N)C2O)C(N)C(O)C1O (stereo not drawn) [Compound 15i] | – | – | – | – | – | pKd ([1]; Example 108): 5.77; MIC E. Coli. ([2]; Example 108): 12 to 25 µM; pIC50 ([3]; Example 108): 6.70; pKd ([4]; Example 108): 6.22; MIC S. Aureus ([5]; Example 108): 3 to 6 µM
NCCOC1C(OC2C(O)C(N)CC(N)C2OC2OC(CO)C(O)C(O)C2N)OC(CO)C1O (stereo not drawn) [Compound 30a] | 4.24 | 6 to 12 µM | 6.70 | 4.72 | 12 to 25 µM | –
NCCCNCCOC1C(OC2C(O)C(N)CC(N)C2OC2OC(CO)C(O)C(O)C2N)OC(CO)C1O (stereo not drawn) [Compound 30b] | 4.74 | 6 to 12 µM | 7.00 | 5.04 | 6 to 12 µM | –

Reference: patent US8569264B2, “Antibacterial 4,5-substituted aminoglycoside analogs having multiple substituents” (ISIS Pharmaceuticals, Inc., priority 2005, dated 2013)
